# Experimental data: US20260345798A1, “COMPOUNDS AND METHODS OF USE THEREOF” (Virginia Commonwealth University, priority 2023, published 2026)
# Residues, ends and D or L forms follow the SMILES beside them.
# What was measured:
# MDA-9/Syntenin = molecular target: T1, MDA-9/Syntenin (Homo sapiens, UniProt O00560); assay: NMR titration / ITC binding and HSQC mapping
# T1 sequence (O00560 1-298): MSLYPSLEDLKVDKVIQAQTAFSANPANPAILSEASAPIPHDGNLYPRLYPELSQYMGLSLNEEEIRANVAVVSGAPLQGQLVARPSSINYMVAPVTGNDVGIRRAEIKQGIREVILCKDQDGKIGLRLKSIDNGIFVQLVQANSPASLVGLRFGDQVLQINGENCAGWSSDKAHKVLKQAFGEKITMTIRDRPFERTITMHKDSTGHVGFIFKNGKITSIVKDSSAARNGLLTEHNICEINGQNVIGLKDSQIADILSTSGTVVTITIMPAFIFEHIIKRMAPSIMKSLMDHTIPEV
# [1] = molecular target: PDZ tandem protein Harmonin (Homo sapiens, UniProt Q9Y6N9); assay: Binding to other PDZ domains: Harmonin; details: 36% identity to PDZ2 and 31% to PDZ1 of MDA-9/Syntenin
# Sequence of PDZ tandem protein Harmonin (Q9Y6N9 whole entry, the tested form may be a part): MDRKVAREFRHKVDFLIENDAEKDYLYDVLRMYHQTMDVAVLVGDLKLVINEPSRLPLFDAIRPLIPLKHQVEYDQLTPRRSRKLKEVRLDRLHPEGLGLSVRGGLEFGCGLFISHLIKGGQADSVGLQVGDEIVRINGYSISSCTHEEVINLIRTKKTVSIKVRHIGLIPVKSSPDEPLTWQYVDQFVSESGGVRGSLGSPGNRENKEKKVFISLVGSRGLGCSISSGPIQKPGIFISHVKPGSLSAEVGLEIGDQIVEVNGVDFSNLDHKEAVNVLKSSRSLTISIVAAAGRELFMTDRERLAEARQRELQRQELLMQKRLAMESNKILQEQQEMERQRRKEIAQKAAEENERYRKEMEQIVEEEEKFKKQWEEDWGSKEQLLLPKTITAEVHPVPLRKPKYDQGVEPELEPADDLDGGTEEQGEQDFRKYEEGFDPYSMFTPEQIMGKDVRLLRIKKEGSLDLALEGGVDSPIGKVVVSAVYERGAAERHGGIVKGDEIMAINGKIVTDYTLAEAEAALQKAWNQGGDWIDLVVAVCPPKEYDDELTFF
# A-375 and C8161.9 cells = assay: Boyden chamber invasion assay, comparison with PDZ1i; format: cell-based, human; details: 25 μM each
# Protocol: FIG. 11A is a series of photomicrographs taken at 10× magnification showing invasion assays of A-375 cells treated with DMSO vehicle, 25 μM PDZ1i, or 25 μM IVMT-Rx-3, as well as histograms showing quantification of the average percent invasion of three independent experiments±standard deviation. *: Statistical significance (p<0.05).
# FIG. 11B is a series of photomicrographs taken at 10× magnification showing invasion assays of C8161.9 cells treated with DMSO vehicle, 25 μM PDZ1i, or 25 μM IVMT-Rx-3 in C8161.9 melanoma cells, as well as histograms showing quantification of the average percent invasion of three independent experiments±standard deviation. *: Statistical significance (p<0.05).
# (§1) Invasive phenotype was measured using a Boyden Chamber Assay as described previously (6,8,18). Briefly, 25,000 cells were plated on the upper chamber of the trans well in FBS free media and allowed to invade the Matrigel layer towards the bottom chamber supplemented with complete media. Twenty-four hr. after plating, the invaded cells were fixed and counted under a bright field microscope.
# MDA-9/Syntenin: Src = molecular target: T2, MDA-9/Syntenin: Src (Homo sapiens, UniProt O00560); assay: Co-immunoprecipitation MDA-9/Syntenin: Src; format: cell-based; details: C8161.9 and A-375 cells; co-IP after 12 hours treatment, fibronectin-coated plates
# T2 construct: co-immunoprecipitation with anti-MDA-9
# Protocol: FIG. 4A is an immunoblot of C8161.9 and A-375 cells treated for 12 hours with either DMSO vehicle or IVMT-Rx-3 at different doses (as indicated) and re-plated onto fibronectin-coated plates. After 30 minutes, cell lysates were immunoprecipitated and immunoblotted with the indicated antibodies.
# Co-immunoprecipitation studies were performed as described previously using immunoprecipitation kits with Dynabeads® Protein G (Life Technologies) (7,8). Briefly, 30 min. after plating cells on fibronectin-coated plates, protein lysates were prepared. 200 μg of total cellular protein was incubated with anti-IgG or anti-MDA-9 overnight to facilitate binding. After subsequent washing and elution from beads, Western blotting was performed with specific antibodies.
# [2] = tested on: Src, P38 and IκB phosphorylation in A-375 and C8161.9 cells; assay: Western blotting of signaling proteins, human melanoma cells; format: cell-based; details: 24 hours
# Protocol: FIG. 4B is a Western blot of C8161.9 and A-375 cells treated with indicated doses of IVMT-Rx-3 for 24 hours. Cell lysates were subjected to Western blotting analysis to determine the expression levels of various signaling proteins (as shown) associated with MDA-9/Syntenin: Src interactions. Western blotting densitometry and relative intensity of protein bands were calculated using Image J software. The values are provided.
# (§2) Western blotting was performed following a standard protocol as described previously (6,8,18,29). Antibodies used in this study were purchased from Cell Signaling Technology (Boston, MA): p-Src (Y416), total Src, matrix metalloproteinase-2 (MMP-2) and matrix metaloproteinase-9 (MMP-9), focal adhesion kinase (FAK), p IKKα/β (S176/180), total IKK, p P38 (T180/Y182) and total P38. MDA-9/Syntenin antibody was obtained from Abnova Inc. (Taiwan). β-actin (Sigma-Aldrich, St. Louis, MO) was used as an endogenous loading control. Fibronectin was purchased from EMD Millipore (Billerica, MA).
# MMP-2 and MMP-9 = assay: Gelatin zymography of conditioned media; format: cell-based, human; details: A-375 and C8161.9 cells, 10, 25, 50 μM, 24 hrs
# Protocol: FIG. 5B is images of zymography assays of MMP-2 and MMP-9 activity in A-375, C8161.9 cells treated with IVMT-Rx-3 at varying doses, and histograms showing the calculated intensity from the zymography assays. *: Statistical significance (p<0.05).
# Tumor cells were treated with different doses of IVMT-Rx-3 (10, 25, and 50 μM) for 24 hrs. The cells were then cultured in serum-free medium overnight. Conditioned media (serum free media) collected on the next day was quantified and equal amounts of protein were run in a 7.5% SDS-polyacrylamide gel electrophoresis containing 1.5 mg/mL gelatin. The gels were washed vigorously with shaking 3×in 2.5% Triton X-100 solution to remove the SDS. The gel was then placed in the developing buffer [50 mM/L Tris-HCl (pH 7.5), 0.05% NaN3, 5 mM/L CaCl2), and 1 μM/L ZnCl2] 37 °C overnight. Lastly, the gels were stained with Amido black in 10% acetic acid followed by de-staining for 1 hr. MMP activities as observed through gelatinolysis were measured as clear zones of white strips against a blue background (21).
# B16 melanoma cells = assay: Boyden chamber invasion assay, B16 cells; format: cell-based; details: B16 mouse melanoma cells
# Protocol: FIG. 13A is a series of photomicrographs of B16 melanoma cells treated with IVMT-Rx-3 at varying concentrations, as well as a histogram showing quantification of the average percentage (of control) of invaded cells. Invasion was assayed using a Boyden chamber. *: Statistical significance (p<0.05).
# as §1
# [3] = tested on: Src and P38 in B16 melanoma cells; assay: Western blotting, B16 cells; format: cell-based; details: B16 mouse melanoma cells, Western blot
# Protocol: as §2
# IGFBP-2 = IGFBP-2 in blood plasma of B16-injected mice; format: in vivo, mouse; details: 30 mg/kg I.P., 6 injections
# Text: FIG. 6C is a histogram showing the IGFBP-2 expression measured in blood plasma from animals (n=7) in the treatment groups described in FIG. 6A. ****: Statistical significance (p<0.0001).
# T cells = assay: T cell infiltration into the tumor environment; format: in vivo; details: targeting MDA-9/Syntenin
# [4] = Toxicity in pre-clinical animal models; details: in vivo
smiles,measurement,setting,value
Cc1cc(NC(=O)c2nc3[nH]c4c(c(=O)n3n2)CCC4)c(C)cc1NC(=O)CCOCCC(=O)N[C@H](C(=O)N[C@@H](CC(N)=O)C(=O)N[C@@H](CCC(=O)O)C(=O)N[C@@H](Cc1ccc(O)cc1)C(=O)N[C@@H](Cc1ccc(O)cc1)C(=O)N[C@H](C(=O)O)C(C)C)[C@@H](C)O [IVMT-Rx-3] (HELM PEPTIDE1{[Cc1cc(NC(=O)c2nc3[nH]c4c(c(=O)n3n2)CCC4)c(C)cc1NC(=O)CCOCCC(=O)[*:2]].T.N.E.Y.Y.V}$$$$V2.0),Kd,"MDA-9/Syntenin; ITC, fitted to a single binding event, NMR titration provides similar values, read-out: overall dissociation constant of the complex, Kd",< 1 µM
same,induction of chemical shifts (NMR mapping),MDA-9/Syntenin; NMR mapping studies,induces chemical shifts in both domains
same,perturbation of Met201 (PDZ2) and Met188 (PDZ1),"MDA-9/Syntenin; [13C,1H]-HSQC, 20 μM 13C-Met-labeled MDA-9/Syntenin, 40 μM compound",both clearly perturbed
same,binding to Harmonin,[1],did not bind appreciably
same,anti-invasive efficacy in comparison with PDZ1i,A-375 and C8161.9 cells,significantly enhanced the anti-invasive efficacy in comparison with PDZ1i
same,disruption of MDA-9/Syntenin: Src interactions,MDA-9/Syntenin: Src,disrupted MDA-9/Syntenin: Src interactions
same,Src activation (Src phosphorylation),[2],significantly reduced Src activation
same,"levels of p-P38, p-Src, and pIκB",[2],Reduced levels
same,MMP activity (zymography),MMP-2 and MMP-9,lower activity in treated cells
same,invasion of B16 cells,B16 melanoma cells,inhibition of invasion
same,Src and downstream P38,[3],downregulation of Src and downstream P38
same,IGFBP-2 levels in blood plasma,IGFBP-2,down regulation
same,T cell infiltration into the tumor environment,T cells,causes T cell infiltration into the tumor environment
same,toxicity in pre-clinical animal models,[4],without provoking toxicity
